Columns and labels:
[1] = target: T1, IDO1 (Homo sapiens (Human), UniProt P14902); experiment: IDO1 Cellular Assay in Hela Cells Stimulated with IFNγ; type: cell-based; details: about 48 hours, read-out: IDO1 HELA Cell Assay, IC50
Experimental: Hela cells were cultured in complete Hela culture medium (90% EMEM, 10% heat-inactivated fetal bovine serum) and expanded to about 1×10^9 cells. The cells were then collected and frozen down at 10×10^6 cells/vial in 1 mL frozen medium (90% complete Hela culture medium, 10% DMSO)
Compounds to be tested were serially diluted in ten 3-fold steps in DMSO starting from 10 mM DMSO stocks in Echo low volume plate(s). Compound dilutions or DMSO alone were then dispensed from the dilution plate(s) into Greiner black 384-well assay plate(s) (catalog #781086, 50 nL/well) using an Echo 550 acoustic liquid handler (Labcyte).
Frozen Hela cells were thawed and transferred into Hela assay medium (99% complete Hela culture medium, 1% Pen/Strep) with 20 mL medium/vial of cells. The cells were spun down at 250 g in a table top centrifuge for 5 min and suspended in same volume of Hela assay medium. The cells were then counted and adjusted to a density of 2×10^5 cells/ml in Hela assay medium. Sterile L-tryptophan were added to the cells with final concentration of 300 uM L-tryptophan. A small aliquot (2 mL/plate) of Hela cells were set aside and were not treated with IFNγ, to serve as the Max-E control. The rest of Hela cells were added with sterile IFNγ (Cat #285-IF, R & D systems) with a final concentration of 100 ng/mL.
Hela cells with and without IFNγ were dispensed to the respective wells of 384-well assay plates containing the compounds. The plates were incubated for about 48 hours at a 37° C., 5% CO2 incubator. Afterwards, 12 μL of 0.5 M methyl isonipecotate in dimethyl sulfoxide were added into each well and the plates were sealed and incubated at 37° C. without CO2 overnight. The plates were centrifuged for 1 min at 200×g. The resulting fluorescence was measured in a Spectramax plate reader (Molecular Devices) with a 400 nm excitation filter and a 510 nm emission filter.
The fluorescence intensity of each well was corrected for the background observed in wells with non-IFNγ-treated cells and was expressed as a fraction of the intensity observed in wells of IFNγ-treated cells and DMSO only. Potencies were calculated by linear least squares fit to the four parameter logistic IC50 equation.
Target sequence in this assay (P14902 whole entry): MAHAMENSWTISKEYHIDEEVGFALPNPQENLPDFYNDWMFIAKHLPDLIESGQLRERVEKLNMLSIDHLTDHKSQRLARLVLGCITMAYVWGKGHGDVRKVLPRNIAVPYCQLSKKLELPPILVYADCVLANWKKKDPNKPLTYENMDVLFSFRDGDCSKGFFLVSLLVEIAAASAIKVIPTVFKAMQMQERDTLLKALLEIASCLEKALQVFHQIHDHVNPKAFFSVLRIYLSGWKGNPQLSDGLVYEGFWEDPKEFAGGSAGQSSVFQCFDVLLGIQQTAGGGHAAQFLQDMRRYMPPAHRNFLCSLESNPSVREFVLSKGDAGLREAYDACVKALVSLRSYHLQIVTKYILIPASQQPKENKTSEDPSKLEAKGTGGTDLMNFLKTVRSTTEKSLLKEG

[2] = target: T1, IDO1; experiment: IDO1 Enzyme Assay; type: biochemical; details: HIS-tagged recombinant IDO1, fluorescence readout
Experimental: Compounds to be tested were serially diluted in ten 3-fold steps in DMSO starting from 10 mM DMSO stocks. Compound dilutions or DMSO alone were then dispensed from the dilution plate into a Greiner black 384-well assay plate (catalog #781086) using an Echo 555 acoustic liquid handler (Labcyte).
HIS-tagged IDO1 protein was recombinantly expressed in Escherichia coli using ZYP5052 autoinduction media supplemented with 500 μM delta aminolevulinic acid for 48 h at 16° C. IDO1 protein was purified using Ni^2+-affinity resin and size exclusion chromatography. Purified protein was then diluted in assay buffer (50 mM Tris pH 7.0, 1% glycerol, 20 μM methylene blue, 0.05% Tween-20, 20 mM sodium ascorbate, 100 units/mL catalase to obtain a final IDO1 concentration of 40 nM. IDO1 solution […] or buffer alone ([…]) were dispensed to wells of the assay plate using a BioRAPTR liquid dispenser (Beckman Coulter). Assay plates containing compound and IDO1 enzyme were incubated at RT for 30 min. Afterwards, 10 μL of 400 μM tryptophan in assay buffer were added to each well of the assay plate using a BioRAPTR liquid dispenser. Plates were incubated at RT for 60 min and reactions were quenched by addition of 10 μL of 0.5 M methyl isonipecotate in dimethyl sulfoxide. Plates were sealed and incubated at 37° C. for 4 h or 50° C. for 2 h. The plates are allowed to cool and then centrifuged for 1 min at 1000×g. The resulting fluoresence was measured in an Envision plate reader (Perkin Elmer) with a 400/25 nm excitation filter and an 510/20 nm emission filter.
Potencies were calculated by linear least squares fit to the four parameter logistic IC50 equation.
Target sequence in this assay (P14902 whole entry, species assumed): as the sequence (P14902 whole entry) above

| SMILES | IC50 [1] | IC50 [2] |
| --- | --- | --- |
| CS(=N)(=O)CC(=O)N1CC(Oc2nonc2/C(=N/O)N[C@H]2Cc3ccc(F)cc32)C1 (single isomer, unassigned) [Example 50] | 0.153 µM | 0.111 µM |
| CS(=N)(=O)C1CC2(CC(Nc3nonc3/C(=N\O)N[C@@H]3Cc4ccc(F)cc43)C2)C1 (single isomer, unassigned) [Example 75] | 0.0403 µM | 0.0904 µM |
| CS(=N)(=O)N[C@H]1C[C@@H](Oc2nonc2/C(=N\O)N[C@@H]2Cc3ccc(F)cc32)C1 (single isomer, unassigned) [Example 61] | 0.128 µM | 0.0816 µM |
| CS(=N)(=O)N1CCC(Nc2nonc2/C(=N/O)N[C@H]2Cc3ccc(F)cc32)C1 (single isomer, unassigned) [Example 46] | 0.153 µM | 0.175 µM |
| CS(=N)(=O)CCC(O)CNc1nonc1/C(=N\O)N[C@@H]1Cc2ccc(F)cc21 (single isomer, unassigned) [Example 79] | 0.091 µM | 0.0776 µM |
| N=S1(=O)CCC1CNc1nonc1/C(=N/O)N[C@H]1Cc2ccc(F)cc21 (single isomer, unassigned) [Example 22] | 0.0815 µM | 0.137 µM |
| CS(=N)(=O)N1CCO[C@@H](CNc2nonc2/C(=N\O)N[C@@H]2Cc3ccc(F)cc32)C1 (single isomer, unassigned) [Example 64] | 0.2 µM | 0.083 µM |
| N=S(=O)(CCO)CCNc1nonc1/C(=N/O)N[C@H]1Cc2ccc(F)cc21 (single isomer, unassigned) [Example 8] | 0.0305 µM | 0.0435 µM |
| CS(=N)(=O)CCC(O)CNc1nonc1/C(=N\O)N[C@@H]1Cc2ccc(F)cc21 (single isomer, unassigned) [Example 81] | 0.0628 µM | 0.095 µM |
| CS(=N)(=O)CC(=O)N1CC(Oc2nonc2/C(=N/O)N[C@H]2Cc3ccc(F)cc32)C1 (single isomer, unassigned) [Example 49] | 0.0995 µM | 0.112 µM |
| CN=S(C)(=O)CCNc1nonc1/C(=N/O)N[C@H]1Cc2ccc(F)cc21 (single isomer, unassigned) [Example 34] | 0.077 µM | 0.0598 µM |
| CS(=N)(=O)N[C@H]1C[C@@H](Oc2nonc2/C(=N\O)N[C@@H]2Cc3ccc(F)cc32)C1 (single isomer, unassigned) [Example 62] | 0.183 µM | 0.147 µM |
| CS(=N)(=O)CCCCNc1nonc1/C(=N/O)N[C@H]1Cc2ccc(F)cc21 (single isomer, unassigned) [Example 38] | 0.0267 µM | 0.0472 µM |
| CS(=N)(=O)N1CCC(Nc2nonc2/C(=N/O)N[C@H]2Cc3ccc(F)cc32)C1 (single isomer, unassigned) [Example 44] | 0.219 µM | 0.22 µM |
| CON=[S@](C)(=O)CCNc1nonc1/C(=N/O)NC1Cc2ccc(F)cc21 (single isomer, unassigned) [Example 90] | 0.0535 µM | 0.0449 µM |
| C[S@@](=N)(=O)CCCOc1nonc1/C(=N/O)NC1Cc2ccc(F)cc21 (single isomer, unassigned) [Example 30] | 0.384 µM | 0.231 µM |
| CS(=N)(=O)CCC(O)CNc1nonc1/C(=N\O)N[C@@H]1Cc2ccc(F)cc21 (single isomer, unassigned) [Example 80] | 0.0685 µM | 0.0945 µM |
| CS(=N)(=O)NCCOc1nonc1/C(=N/O)N[C@H]1Cc2ccc(F)cc21 (single isomer, unassigned) [Example 51] | 0.317 µM | 0.262 µM |
| CS(=N)(=O)NCC(O)CNc1nonc1/C(=N\O)N[C@H]1Cc2ccc(F)cc21 (single isomer, unassigned) [Example 56] | 0.162 µM | 0.107 µM |

| SMILES | IC50 [1] | IC50 [2] |
| --- | --- | --- |
| CS(=N)(=O)CCNC(=O)CNc1nonc1/C(=N/O)N[C@H]1Cc2ccc(F)cc21 (single isomer, unassigned) [Example 13] | 0.0955 µM | 0.0582 µM |
| CC(O)CS(=N)(=O)CCNc1nonc1/C(=N\O)N[C@@H]1Cc2ccc(F)cc21 (single isomer, unassigned) [Example 87] | 0.0519 µM | 0.0461 µM |
| CS(=N)(=O)CCOCCNc1nonc1/C(=N/O)N[C@H]1Cc2ccc(F)cc21 (single isomer, unassigned) [Example 48] | 0.144 µM | 0.119 µM |
| CS(=N)(=O)CC12CC(Nc3nonc3/C(=N\O)N[C@@H]3Cc4ccc(F)cc43)(C1)C2 (single isomer, unassigned) [Example 82] | 0.082 µM | 0.0917 µM |
| CS(=N)(=O)NCCCCNc1nonc1/C(=N/O)N[C@H]1Cc2ccc(F)cc21 (stereo partly drawn) [Example 53, N-[(7S)-4-fluorobicyclo[4.2.0]octa-1,3,5-trien-7-yl]-N′-hydroxy-4-({4-[(S-methylsulfonimidoyl)amino]butyl}amino)-1,2,5-oxadiazole-3-carboximidamide] | 0.0451 µM | 0.0694 µM |
| CS(=N)(=O)N1CCC(Nc2nonc2/C(=N/O)N[C@H]2Cc3ccc(F)cc32)CC1 (single isomer, unassigned) [Example 19] | 0.0621 µM | 0.0672 µM |
| CS(=N)(=O)N1CC2(CC(Nc3nonc3/C(=N\O)N[C@@H]3Cc4ccc(F)cc43)C2)C1 (single isomer, unassigned) [Example 76] | 0.0176 µM | 0.0399 µM |
| CN=S(C)(=O)NCCNc1nonc1/C(=N\O)N[C@H]1Cc2ccc(F)cc21 (single isomer, unassigned) [Example 66] | 0.0596 µM | 0.0808 µM |
| CS(=N)(=O)N1CC(CNc2nonc2/C(=N\O)N[C@@H]2Cc3ccc(F)cc32)C1 (single isomer, unassigned) [Example 71] | 0.0723 µM | 0.08 µM |
| CS(=O)(CCNc1nonc1/C(=N\O)N[C@H]1Cc2ccc(F)cc21)=NCCO (single isomer, unassigned) [Example 58] | 0.123 µM | 0.125 µM |
| CC(O)CS(=N)(=O)CCNc1nonc1/C(=N\O)N[C@@H]1Cc2ccc(F)cc21 (single isomer, unassigned) [Example 85] | 0.0497 µM | 0.0495 µM |
| CS(=N)(=O)N1CC(O)(CNc2nonc2/C(=N/O)N[C@H]2Cc3ccc(F)cc32)C1 (single isomer, unassigned) [Example 37] | 0.312 µM | 0.108 µM |
| C[S@@](=N)(=O)CCCOc1nonc1/C(=N/O)NC1Cc2ccc(F)cc21 (single isomer, unassigned) [Example 31] | 0.356 µM | 0.213 µM |
| CS(=N)(=O)N1CCO[C@@H](CNc2nonc2/C(=N\O)N[C@H]2Cc3ccc(F)cc32)C1 (single isomer, unassigned) [Example 59] | 0.129 µM | 0.12 µM |
| CC(O)CS(=N)(=O)CCNc1nonc1/C(=N\O)N[C@@H]1Cc2ccc(F)cc21 (single isomer, unassigned) [Example 86] | 0.0405 µM | 0.0474 µM |
| CS(=N)(=O)N1CC(CNc2nonc2/C(=N\O)N[C@@H]2Cc3ccc(F)cc32)C1 (single isomer, unassigned) [Example 70] | 0.0416 µM | 0.0797 µM |
| CS(=N)(=O)CC(O)CNc1nonc1/C(=N/O)N[C@H]1Cc2ccc(F)cc21 (single isomer, unassigned) [Example 29] | 0.123 µM | 0.0704 µM |
| CS(=N)(=O)CC(O)CNc1nonc1/C(=N/O)N[C@H]1Cc2ccc(F)cc21 (single isomer, unassigned) [Example 28] | 0.11 µM | 0.0607 µM |
